Measured values from PubChem BioAssay AID342 (DTP/NCI, 2004).
Several values for one entry are separate records, joined by “and”; a condition that tells them apart may be missing. Equal values may be shown once.

Tested on: Swiss mice, Sarcoma 180 sc, mean tumor weight T/C
Assay: NCI In Vivo Anticancer Drug Screen. Data for tumor model Sarcoma 180 (subcutaneous) in Swiss mice
Conditions: endpoint: mean tumor weight, higher = larger tumour
Procedure, shortened: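 Tumor-bearing mice, transplantable tumor; readout survival or tumor size; result = T/C, treated vs vehicle control.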

[1] = dose: 25.0 mg/kg/injection, schedule: Q#A X014 (ip), vehicle: methylcellulose (MC)

Question: `Nc1nc(=S)c2[nH]cnc2[nH]1` was tested. Which T/C (dose: 0.06 mg/kg/injection, schedule: Q#A X014 (ip), vehicle: carboxymethylcellulose (CMC)) did it give?
Answer: 72 % of control

Question: And the T/C (dose: 0.12 mg/kg/injection, schedule: Q01DX007 (ip), vehicle: carboxymethylcellulose (CMC))?
Answer: 78 % of control

Question: And the T/C (dose: 0.25 mg/kg/injection, schedule: Q01DX007 (ip), vehicle: carboxymethylcellulose (CMC))?
Answer: 82 % of control

Question: What about the T/C (dose: 0.25 mg/kg/injection, schedule: Q#A X014 (ip), vehicle: carboxymethylcellulose (CMC)) of the same compound?
Answer: 89 % of control

Question: And the T/C (dose: 0.5 mg/kg/injection, schedule: Q01DX007 (ip), vehicle: carboxymethylcellulose (CMC))?
Answer: 97 % of control

Question: And the T/C (dose: 0.6 mg/kg/injection, schedule: Q01DX007 (ip), vehicle: carboxymethylcellulose (CMC))?
Answer: 49 % of control

Question: What about the T/C (dose: 0.75 mg/kg/injection, schedule: Q01DX007 (ip), vehicle: carboxymethylcellulose (CMC)) of the same compound?
Answer: 78 % of control

Question: What about the T/C (dose: 1.0 mg/kg/injection, schedule: Q01DX007 (ip), vehicle: carboxymethylcellulose (CMC)) of the same compound?
Answer: 22 % of control and 37 % of control

Question: What about the T/C (dose: 1.0 mg/kg/injection, schedule: Q#A X014 (ip), vehicle: carboxymethylcellulose (CMC)) of the same compound?
Answer: 46 % of control

Question: What about the T/C (dose: 1.5 mg/kg/injection, schedule: Q01DX007 (ip), vehicle: carboxymethylcellulose (CMC)) of the same compound?
Answer: 33 % of control

Question: And the T/C (dose: 2.0 mg/kg/injection, schedule: Q01DX007 (ip), vehicle: carboxymethylcellulose (CMC))?
Answer: 37 % of control and 50 % of control

Question: What about the T/C (dose: 3.0 mg/kg/injection, schedule: Q01DX007 (ip), vehicle: carboxymethylcellulose (CMC)) of the same compound?
Answer: 25 % of control

Question: And the T/C (dose: 4.0 mg/kg/injection, schedule: Q#A X014 (ip), vehicle: carboxymethylcellulose (CMC))?
Answer: 23 % of control

Question: And the T/C (dose: 6.7 mg/kg/injection, schedule: Q01DX007 (ip), vehicle: carboxymethylcellulose (CMC))?
Answer: 10 % of control and 15 % of control

Question: And the T/C (dose: 10.0 mg/kg/injection, schedule: Q01DX007 (ip), vehicle: carboxymethylcellulose (CMC))?
Answer: 3 % of control

Question: And the T/C (dose: 187.5 mg/kg/injection, schedule: Q#A X014 (ip), vehicle: carboxymethylcellulose (CMC))?
Answer: 58 % of control

Question: And the T/C (dose: 375.0 mg/kg/injection, schedule: Q#A X014 (ip), vehicle: carboxymethylcellulose (CMC))?
Answer: 51 % of control

Question: And the T/C (dose: 750.0 mg/kg/injection, schedule: Q#A X014 (ip), vehicle: carboxymethylcellulose (CMC))?
Answer: 35 % of control

Question: What about the T/C (dose: 1500.0 mg/kg/injection, schedule: Q#A X014 (ip), vehicle: carboxymethylcellulose (CMC)) of the same compound?
Answer: 16 % of control

Question: How did the T/C (dose: 187.5 mg/kg/injection, schedule: Q#A X014 (ip), vehicle: methylcellulose (MC)) turn out when `O=C(O)CC[S-].[Ag+]` was run?
Answer: 59 % of control and 68 % of control

Question: What about the T/C (dose: 281.0 mg/kg/injection, schedule: Q#A X014 (ip), vehicle: methylcellulose (MC)) of the same compound?
Answer: 69 % of control

Question: What does the source list for `CCC(=O)O[C@H]1CC[C@H]2[C@@H]3CC[C@H]4CC(=O)[C@H](C)C[C@]4(C)[C@H]3CC[C@]12C`?
Answer: T/C (dose: 125.0 mg/kg/injection, schedule: Q01DX007 (sc), vehicle: steriod suspending solution): 77 % of control; T/C (dose: 250.0 mg/kg/injection, schedule: Q01DX007 (sc), vehicle: steriod suspending solution): 101 % of control; T/C (dose: 500.0 mg/kg/injection, schedule: Q01DX007 (sc), vehicle: steriod suspending solution): 121 % of control; T/C (dose: 1000.0 mg/kg/injection, schedule: Q01DX007 (sc), vehicle: steriod suspending solution): 62 % of control

Question: `c1cncc(CSc2ncnc3nc[nH]c23)c1` was tested. Which T/C (dose: 11.1 mg/kg/injection, schedule: Q#A X014 (ip), vehicle: methylcellulose (MC)) did it give?
Answer: 53 % of control

Question: And the T/C (dose: 16.65 mg/kg/injection, schedule: Q#A X014 (ip), vehicle: methylcellulose (MC))?
Answer: 60 % of control

Question: And the T/C [1]?
Answer: 70 % of control

Question: What about the T/C (dose: 37.5 mg/kg/injection, schedule: Q#A X014 (ip), vehicle: methylcellulose (MC)) of the same compound?
Answer: 47 % of control

Question: Which results are given for `CN1CCC=C(C(=O)O)C1`?
Answer: T/C (dose: 10.0 mg/kg/injection, schedule: Q01DX007 (ip), vehicle: water): 78 % of control; T/C (dose: 50.0 mg/kg/injection, schedule: Q01DX007 (ip), vehicle: water): 75 % of control; T/C (dose: 100.0 mg/kg/injection, schedule: Q01DX007 (ip), vehicle: water): 83 % of control

Question: What does the source list for `O=C(NP(=O)(N1CC1)N1CC1)OCc1ccccc1`?
Answer: T/C (dose: 1.5 mg/kg/injection, schedule: Q#A X014 (ip), vehicle: saline): 82 % of control; T/C (dose: 3.0 mg/kg/injection, schedule: Q#A X014 (ip), vehicle: saline): 81 % of control; T/C (dose: 6.0 mg/kg/injection, schedule: Q#A X014 (ip), vehicle: saline): 36 % of control; T/C (dose: 12.0 mg/kg/injection, schedule: Q#A X014 (ip), vehicle: saline): 1 % of control

Question: Which results are given for `C[C@H]1/C(=C/C(=O)OCCN(C)C)CC[C@H]2[C@H]1C(=O)C[C@H]1C(C)(C)[C@@H](O)CC[C@]21C`?
Answer: T/C (dose: 1.88 mg/kg/injection, schedule: Q01DX007 (ip), vehicle: saline): 60 % of control; T/C (dose: 3.75 mg/kg/injection, schedule: Q01DX007 (ip), vehicle: saline): 64 % of control; T/C (dose: 7.5 mg/kg/injection, schedule: Q01DX007 (ip), vehicle: saline): 75 % of control

Question: Which T/C [1] does the source give for `CO[C@@H]1[C@@H](OC2OC(C)C(OC3CC(C)(O)C(OC(=O)CC(C)C)C(C)O3)C(N(C)C)C2O)[C@@H](CC=O)C[C@@H](C)C(=O)/C=C/C2O[C@H]2C[C@@H](C)OC(=O)C[C@H]1OC(C)=O` (some centres not stated) here?
Answer: 86 % of control

Question: What about the T/C (dose: 50.0 mg/kg/injection, schedule: Q#A X014 (ip), vehicle: methylcellulose (MC)) of the same compound?
Answer: 116 % of control

Question: And the T/C (dose: 75.0 mg/kg/injection, schedule: Q#A X014 (ip), vehicle: methylcellulose (MC))?
Answer: 88 % of control

Question: And the T/C (dose: 100.0 mg/kg/injection, schedule: Q#A X014 (ip), vehicle: methylcellulose (MC))?
Answer: 95 % of control

Question: What about the T/C (dose: 100.0 mg/kg/injection, schedule: Q#A X014 (ip), vehicle: other) of the same compound?
Answer: 96 % of control

Question: And the T/C (dose: 125.0 mg/kg/injection, schedule: Q#A X014 (ip), vehicle: methylcellulose (MC))?
Answer: 75 % of control

Question: And the T/C (dose: 125.0 mg/kg/injection, schedule: Q#A X014 (ip), vehicle: other)?
Answer: 113 % of control

Question: And the T/C (dose: 150.0 mg/kg/injection, schedule: Q#A X014 (ip), vehicle: other)?
Answer: 65 % of control

Question: And the T/C (dose: 175.0 mg/kg/injection, schedule: Q#A X014 (ip), vehicle: other)?
Answer: 57 % of control

Question: `COc1ccc2c(c1)CC[C@@H]1[C@@H]2CC[C@@]2(C)[C@H]1CC[C@]2(C)O` was tested. Which T/C (dose: 0.5 mg/kg/injection, schedule: Q#A X014 (sc), vehicle: steriod suspending solution) did it give?
Answer: 80 % of control

Question: What about the T/C (dose: 5.0 mg/kg/injection, schedule: Q#A X014 (sc), vehicle: steriod suspending solution) of the same compound?
Answer: 113 % of control

Question: What about the T/C (dose: 50.0 mg/kg/injection, schedule: Q#A X014 (sc), vehicle: steriod suspending solution) of the same compound?
Answer: 68 % of control

Question: With `CCCCCCCCCCCCCCCCCCNC(=S)N/N=C/c1ccc(Cl)cc1Cl` as the compound, how does the T/C (dose: 65.0 mg/kg/injection, schedule: Q#A X014 (ip), vehicle: methylcellulose (MC)) read?
Answer: 35 % of control and 53 % of control

Question: For `CCNc1nncs1`, which T/C (dose: 13.7 mg/kg/injection, schedule: Q01DX007 (ip), vehicle: carboxymethylcellulose (CMC)) is on record?
Answer: 59 % of control

Question: What about the T/C (dose: 16.37 mg/kg/injection, schedule: Q01DX007 (ip), vehicle: carboxymethylcellulose (CMC)) of the same compound?
Answer: 97 % of control and 108 % of control

Question: And the T/C (dose: 27.5 mg/kg/injection, schedule: Q01DX007 (ip), vehicle: carboxymethylcellulose (CMC))?
Answer: 58 % of control

Question: What about the T/C (dose: 32.75 mg/kg/injection, schedule: Q01DX007 (ip), vehicle: carboxymethylcellulose (CMC)) of the same compound?
Answer: 75 % of control and 98 % of control

Question: What about the T/C (dose: 55.0 mg/kg/injection, schedule: Q01DX007 (ip), vehicle: carboxymethylcellulose (CMC)) of the same compound?
Answer: 47 % of control

Question: What about the T/C (dose: 110.0 mg/kg/injection, schedule: Q01DX007 (ip), vehicle: carboxymethylcellulose (CMC)) of the same compound?
Answer: 41 % of control

Question: What about the T/C (dose: 131.0 mg/kg/injection, schedule: Q01DX007 (ip), vehicle: carboxymethylcellulose (CMC)) of the same compound?
Answer: 46 % of control and 71 % of control

Question: With `NC(=O)Nc1n[se]nc1C(=O)O` as the compound, how does the T/C (dose: 20.0 mg/kg/injection, schedule: Q01DX007 (ip), vehicle: saline) read?
Answer: 111 % of control

Question: What about the T/C (dose: 30.0 mg/kg/injection, schedule: Q01DX007 (ip), vehicle: saline) of the same compound?
Answer: 75 % of control

Question: `CN(C)[C@@H]1C(=O)C(C(=O)NCNC2(C(=O)O)CCCC2)=C(O)[C@@]2(O)C(=O)C3=C(O)c4c(O)cccc4[C@@](C)(O)[C@H]3C[C@@H]12` was tested. Which T/C (dose: 25.0 mg/kg/injection, schedule: Q01DX007 (ip), vehicle: saline) did it give?
Answer: 103 % of control

Question: What about the T/C (dose: 50.0 mg/kg/injection, schedule: Q01DX007 (ip), vehicle: saline) of the same compound?
Answer: 67 % of control

Question: What about the T/C (dose: 62.0 mg/kg/injection, schedule: Q01DX007 (ip), vehicle: saline) of the same compound?
Answer: 103 % of control

Question: What about the T/C (dose: 75.0 mg/kg/injection, schedule: Q01DX007 (ip), vehicle: saline) of the same compound?
Answer: 41 % of control

Question: For `COC(=O)[C@@H]1c2cc3c(c(O)c2[C@@H](OC2OC(C)C(OC)C(C)(OC)C2OC)C[C@]1(C)O)C(=O)c1c(O)cc2c(c1C3=O)O[C@H]1O[C@]2(C)[C@H](O)[C@@H](N(C)C)[C@@H]1O` (some centres not stated), which T/C (dose: 0.2 mg/kg/injection, schedule: Q01DX007 (ip), vehicle: saline) is on record?
Answer: 77 % of control

Question: And the T/C (dose: 0.3 mg/kg/injection, schedule: Q01DX007 (ip), vehicle: saline)?
Answer: 81 % of control

Question: And the T/C (dose: 0.44 mg/kg/injection, schedule: Q01DX007 (ip), vehicle: saline)?
Answer: 60 % of control

Question: And the T/C (dose: 0.67 mg/kg/injection, schedule: Q01DX007 (ip), vehicle: saline)?
Answer: 57 % of control

Question: What about the T/C (dose: 1.0 mg/kg/injection, schedule: Q01DX007 (ip), vehicle: saline) of the same compound?
Answer: 50 % of control

Question: What does the source list for `S=C(N=Nc1ccccc1)NNc1ccccc1`?
Answer: T/C (dose: 37.5 mg/kg/injection, schedule: Q01DX007 (ip), vehicle: carboxymethylcellulose (CMC)): 110 % of control; T/C (dose: 75.0 mg/kg/injection, schedule: Q01DX007 (ip), vehicle: carboxymethylcellulose (CMC)): 47 % of control
